Data as given in the supplement of paper PMC12137928.
Where a name gives a salt, the structure may show the parent alone.

Tested on: HCT116
Settings: 72 h
In short: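 HCT116 cells went into 1536-well plates at 250 per well. CellTiter-Glo luminescence was expressed relative to vehicle (0%) and positive control (-100%) and then pattern-corrected. Both IC50 and maximal efficacy were taken from four-parameter Hill fits.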

Row | Structure (SMILES) | IC50 cell viability (ICRF193 0 nM) | IC50 cell viability (ICRF193 200 nM)
1 | CC(C)(C)CC(C)(C)c1cc(Cc2cc(C(C)(C)CC(C)(C)C)cc(-n3nc4ccccc4n3)c2O)c(O)c(-n2nc3ccccc3n2)c1 | > 45.8 µM | > 45.8 µM
2 | CCOc1cc([C@@H](CS(C)(=O)=O)N2C(=O)c3cccc(NC(C)=O)c3C2=O)ccc1OC | > 45.8 µM | > 45.8 µM
3 | CCOc1ccc(Cc2cc([C@]34OC[C@](CO)(O3)[C@@H](O)[C@H](O)[C@H]4O)ccc2Cl)cc1 | > 45.8 µM | > 45.8 µM
4 | CNC(C)C(O)c1ccc(O)cc1 (configuration not stated) | > 45.8 µM | > 45.8 µM
5 | CSCCNc1nc(SCCC(F)(F)F)nc2c1ncn2[C@@H]1O[C@H](COP(=O)(O)OP(=O)(O)C(Cl)(Cl)P(=O)(O)O)[C@@H](O)[C@H]1O | > 45.8 µM | > 45.8 µM
6 | C[C@H]1C[C@@H]2[C@H]([C@@H](O)C[C@@]3(C)[C@H]2CC[C@]3(O)C(=O)COC(=O)CCC(=O)O)[C@@]2(C)C=CC(=O)C=C12 | > 45.8 µM | > 45.8 µM
7 | Cl/C=C\C[N+]12CN3CN(CN(C3)C1)C2 | > 45.8 µM | > 45.8 µM
8 | OC[C@H]1O[C@@H](c2ccc(Cl)c(Cc3ccc(O[C@H]4CCOC4)cc3)c2)[C@H](O)[C@@H](O)[C@@H]1O | > 45.8 µM | > 45.8 µM
9 | OCc1cc([C@@H](O)CNCCCCCCOCCOCc2c(Cl)cccc2Cl)ccc1O | > 45.8 µM | > 45.8 µM
10 | CC#CCC(C)[C@H](O)/C=C/[C@@H]1[C@H]2c3cccc(CCCC(=O)O)c3O[C@H]2C[C@H]1O (mixture of isomers) [Beraprost sodium] | > 45.8 µM | > 45.8 µM
11 | OC[C@H]1O[C@@H](O[C@@H]2[C@@H](CO)OC(O)(CO)[C@H]2O)[C@H](O)[C@@H](O)[C@H]1O (mixture of isomers) [Lactulose] | > 45.8 µM | > 45.8 µM
12 | CCCCC(C)(O)C/C=C/[C@H]1[C@H](O)CC(=O)[C@@H]1CCCCCCC(=O)OC (mixture of isomers) [Misoprostol] | > 45.8 µM | > 45.8 µM
13 | CCCCCCCCCCCCCC(=O)OCC(COP(=O)([O-])OCC[N+](C)(C)C)OC(=O)CCCCCCCCCCCCC (racemic) [1,2-Ditetradecanoyl-rac-glycerol-3-phosphocholine] | > 45.8 µM | > 45.8 µM
14 | CCCCCCCCCCCCCCCCCC(=O)OCC(O)CO (racemic) [1-Stearoyl-rac-glycerol] | > 45.8 µM | > 45.8 µM
15 | C[N+](C)(C)CC(O)CC(=O)[O-] (racemic) [DL-Carnitine HCl] | > 45.8 µM | > 45.8 µM
16 | NC(CS)C(=O)O (racemic) [DL-Cysteine] | > 45.8 µM | > 45.8 µM
17 | CC[C@H](C)[C@H](N)C(=O)O (racemic) [DL-Isoleucine] | > 45.8 µM | > 45.8 µM
18 | Cc1c(C)c2c(c(C)c1OC(=O)c1cccnc1)CC[C@@](C)(CCC[C@H](C)CCC[C@H](C)CCCC(C)C)O2 (racemic) [DL-alpha Tocopheryl nicotinate] | > 45.8 µM | > 45.8 µM
19 | CC(=O)Oc1c(C)c(C)c2c(c1C)CCC(C)(CCCC(C)CCCC(C)CCCC(C)C)O2 (racemic) [dl-alpha-Tocopheryl acetate] | > 45.8 µM | > 45.8 µM
20 | C=C(C)CNc1ccc(C(C)C(=O)O)cc1 (racemic) [rac Alminoprofen] | > 45.8 µM | > 45.8 µM
21 | C[N+]1([O-])[C@@H]2CC(OC(=O)[C@H](CO)c3ccccc3)C[C@H]1[C@@H]1O[C@@H]12 (single isomer, unassigned; (-)) [(-)-Scopolamine N-oxide] | > 45.8 µM | > 45.8 µM
22 | CC(C1=C(CCN(C)C)Cc2ccccc21)c1ccccn1 (stereo in doubt) [(S)-(+)-Dimethindene maleate] | > 45.8 µM | > 45.8 µM
23 | CC(=C(CCO)SSCC1CCCO1)N(C=O)Cc1cnc(C)nc1N (stereo in doubt) [Fursultiamine Hydrochloride] | > 45.8 µM | > 45.8 µM

Row | Structure (SMILES) | IC50 cell viability (ICRF193 0 nM) | IC50 cell viability (ICRF193 200 nM)
24 | Cc1nnc(C(C)C)n1C1C[C@H]2CC[C@@H](C1)N2CC[C@H](NC(=O)C1CCC(F)(F)CC1)c1ccccc1 (stereo in doubt) [Maraviroc] | > 45.8 µM | > 45.8 µM
25 | CC(C)(O)C(Cl)(Cl)Cl [1,1,1-Trichloro-2-methyl-2-propanol] | > 45.8 µM | > 45.8 µM
26 | O=Cc1ccccc1C=O [1,2-Benzenedicarboxaldehyde] | > 45.8 µM | > 45.8 µM
27 | Oc1cc(O)cc(O)c1 [1,3,5-Trihydroxybenzene dihydrate] | > 45.8 µM | > 45.8 µM
28 | COc1cc(OC)cc(OC)c1 [1,3,5-Trimethoxybenzene] | > 45.8 µM | > 45.8 µM
29 | O=C(O)c1ccc(OCCCOc2ccc(C(=O)O)cc2)cc1 [1,3-Bis(4-carboxyphenoxy)propane] | > 45.8 µM | > 45.8 µM
30 | NC(=Nc1ccccc1)Nc1ccccc1 [1,3-Diphenylguanidine] | > 45.8 µM | > 45.8 µM
31 | O=S(=O)(O)CCCS(=O)(=O)O [1,3-Propanedisulfonic acid disodium salt] | > 45.8 µM | > 45.8 µM
32 | CC12CCC(CC1)C(C)(C)O2 [1,8-Cineol] | > 45.8 µM | > 45.8 µM
33 | FC(F)(F)C(F)(F)C(F)(F)C(F)(F)C(F)(F)C(F)(F)C(F)(F)C(F)(F)Br [1-Bromoheptadecafluorooctane] | > 45.8 µM | > 45.8 µM
34 | CCN1CCCC1=O [1-Ethyl-2-pyrrolidinone] | > 45.8 µM | > 45.8 µM
35 | CCCCCCCCCCCCCCCCO [1-Hexadecanol] | > 45.8 µM | > 45.8 µM
36 | O=C(O)Cc1cccc2ccccc12 [1-Naphthaleneacetic acid] | > 45.8 µM | > 45.8 µM
37 | CCCCCCCCCCCCCCCCCCCCCCCCCCCCO [1-Octacosanol] | > 45.8 µM | > 45.8 µM
38 | CCCCCCCCCCCCCCCCCCO [1-Octadecanol] | > 45.8 µM | > 45.8 µM
39 | CC(O)COc1ccccc1 (configuration not stated) [1-Phenoxy-2-propanol] | > 45.8 µM | > 45.8 µM
40 | CCC(O)c1ccccc1 (configuration not stated) [1-Phenyl-1-propanol] | > 45.8 µM | > 45.8 µM
41 | Nc1ccn([C@H]2CC[C@@H](CO)O2)c(=O)n1 [2',3'-Dideoxycytidine] | > 45.8 µM | > 45.8 µM
42 | O=c1[nH]cnc2c1ncn2[C@H]1CC[C@@H](CO)O1 [2',3'-Dideoxyinosine] | > 45.8 µM | > 45.8 µM
43 | COc1ccc(C(=O)c2ccccc2O)c(O)c1 [2,2'-Dihydroxy-4-methoxybenzophenone] | > 45.8 µM | > 45.8 µM
44 | c1ccc2sc(SSc3nc4ccccc4s3)nc2c1 [2,2'-Dithiobisbenzothiazole] | > 45.8 µM | > 45.8 µM
45 | CCCCCCCC(=O)OCC(O)CO (configuration not stated) [2,3-Dihydroxypropyl octanoate] | > 45.8 µM | > 45.8 µM
46 | OCc1ccc(Cl)cc1Cl [2,4-Dichlorobenzyl alcohol] | > 45.8 µM | > 45.8 µM
